From ChEMBL document CHEMBL4190316, “Synthesis and biological evaluation of 4-biphenylamino-5-halo-2(5H)-furanones as potential anticancer agents” (Eur J Med Chem, 2017) come the findings set out here.

Active and inactive are the calls of the source. The calls are words filed in the database; no cut-off is given here.

Data set [1] concerns HaCaT. The data set can be described thus: Cytotoxicity against human HaCaT cells assessed as reduction in cell viability after 72 hrs by MTT assay. The class given is cell-based. On the technique in general: Tetrazolium assays rely on reduction of a dye to a coloured formazan, in cell work by metabolically active cells.
The test system of data set [2] is MCF7. Put plainly: Cytotoxicity against human MCF7 cells assessed as reduction in cell viability after 72 hrs by MTT assay. The class given is functional, cell-based. The conditions noted are these: MCF7, 72 h.
A short description of data set [3]: Cytotoxicity against human NCI-EC1 cells assessed as reduction in cell viability after 72 hrs by MTT assay. The class given is functional, cell-based.
Data set [4] concerns C6. Put plainly: Cytotoxicity against rat C6 cells assessed as reduction in cell viability after 72 hrs by MTT assay. The class given is functional, cell-based. The conditions noted are these: C6, 72 h.
The subject of data set [5] is HepG2. Put plainly: Cytotoxicity against human HepG2 cells assessed as reduction in cell viability after 72 hrs by MTT assay. The class given is functional, cell-based. The conditions noted are these: HepG2, 72 h.
The test system of data set [6] is MDA-MB-231. Put plainly: Cytotoxicity against human MDA-MB-231 cells assessed as reduction in cell viability after 72 hrs by MTT assay. The class given is functional, cell-based. The conditions noted are these: MDA-MB-231, 72 h.
Data set [7] has as its system CNE. Put plainly: Cytotoxicity against human CNE1 cells assessed as reduction in cell viability after 72 hrs by MTT assay. The class given is functional, cell-based.
The nature of data set [8]: Octanol-water partition coefficient, log P of the compound at 10 mM after 24 hrs by UV-vis spectroscopic method. The class given is physicochemical.
Data set [9] relates to Quadruplex DNA. The data set can be described thus: Binding affinity to c-Myc G-quadruplex DNA (unknown origin) assessed as hypochromism at 20 uM incubated for 3 mins by electronic absorption spectra method. The class given is nucleic-acid assay.
Data set [10] concerns Quadruplex DNA. The data set can be described thus: Binding affinity to c-Myc G-quadruplex DNA (unknown origin) at 20 uM incubated for 3 mins by electronic absorption spectra method. The class given is nucleic-acid assay.
Data set [11] deals with Quadruplex DNA. Put plainly: Binding affinity to c-Myc G-quadruplex DNA (unknown origin) at 20 uM incubated for 2 mins by fluorescence emission spectra method. The class given is nucleic-acid assay.
The test system of data set [12] is Quadruplex DNA. The data set can be described thus: Effect on conformation of c-Myc G-quadruplex DNA (unknown origin) at 1 mM measured every 3 mins by CD spectroscopic analysis. The class given is nucleic-acid assay.

A word on the IC50: it is the concentration needed to halve the response being measured. As a reminder, the logP is a log measure of how a compound divides between an organic and an aqueous phase. Turning to `CCOC1OC(=O)C(Cl)=C1Nc1ccc(-c2ccccc2)cc1` (stereo not given), the IC50 in [1] turned out to be 49.8 µM; in [2] it was 44.6 µM; in [3], 56 µM; in data set [4], 47.9 µM; in [5], 40.1 µM; in data set [6] it was 38.5 µM. Moreover, in data set [7], the 50% inhibitory concentration (IC50) was found to be 47 µM. In addition, in data set [8], the logP at 24 h, 10000 µM came out at 1.33.
With `CCOC1OC(=O)C(Cl)=C1Nc1ccc(-c2ccc(N)cc2)cc1` (stereo not given), the IC50 in data set [1] is 44.8 µM; in [2] it was over 100 µM; in data set [4], 49.6 µM; in data set [5] it was over 100 µM; in data set [6], 37.7 µM; in data set [7] it was over 100 µM. The logP at 24 h, 10000 µM in data set [8] amounted to 1.64.
Turning to `COC1OC(=O)C(Cl)=C1Nc1ccc(-c2ccc(N)cc2)cc1` (stereo not given), the IC50 was over 100 µM in [1]; over 100 µM in data set [2]; over 100 µM in data set [3]; 64.8 µM in data set [4]; over 100 µM in data set [5]; over 100 µM in [6]. In data set [7], the IC50 was over 100 µM. In addition, in data set [8], the logP at 24 h, 10000 µM is 0.913.
For the molecule `CC(=O)OC1OC(=O)C(Br)=C1Nc1ccc(-c2ccccc2)cc1` (stereo not given), in data set [9], the Activity is 17%. The IC50 was found to be 91.4 µM in [1]; 37.3 µM in [2]; 34.9 µM in data set [3]; 44.4 µM in [4]; 27.4 µM in [5]; 60.2 µM in data set [6]. Besides, the IC50 in data set [7] was found to be 81.7 µM. The molecule further had a K in data set [10] of 9.4 ×10⁶ /M. The result in [11] was Active. Besides, the outcome in [12] was inactive. The logP at 24 h, 10000 µM in data set [8] was 1.31.
In the case of `CCOC1OC(=O)C(Br)=C1Nc1ccc(-c2ccc(N)cc2)cc1` (stereo not given), the IC50 in data set [1] was found to be 70.8 µM; in data set [2], 58.1 µM; in [3] it was 82.8 µM; in [4], 56.9 µM; in data set [5], 55.8 µM; in data set [6], 48.6 µM. Besides, in data set [7], the IC50 is 90.1 µM. Moreover, the logP at 24 h, 10000 µM in [8] is 1.58.
`COC1OC(=O)C(Cl)=C1Nc1ccc(-c2ccccc2)cc1` (stereo not given): the IC50 in [1] was 41.2 µM; in data set [2] it was 40.6 µM; in data set [3], 32.2 µM; in data set [4], 36.3 µM; in [5] it was 35.8 µM; in data set [6], 66.5 µM. Moreover, the IC50 in [7] stood at 53.5 µM. In addition, the logP at 24 h, 10000 µM in [8] is 1.5.
Take `CCOC1OC(=O)C(Br)=C1Nc1ccc(-c2ccccc2)cc1` (stereo not given): the IC50 was 50.8 µM in data set [1]; 46.6 µM in [2]; 55 µM in data set [3]; 27.4 µM in [4]; 34.9 µM in data set [5]; 70.4 µM in data set [6]. Also, the IC50 in [7] turned out to be 41.8 µM. Besides, the logP at 24 h, 10000 µM in data set [8] stood at 1.74.
Turning to `COC1OC(=O)C(Br)=C1Nc1ccc(-c2ccccc2)cc1` (stereo not given), the IC50 in [1] came out at 67.5 µM; in data set [2], 37.8 µM; in data set [3], 48 µM; in data set [4] it was 37.9 µM; in data set [5], 45.2 µM; in [6], 97.5 µM. The IC50 in [7] amounted to 52.6 µM. The molecule further displayed a logP at 24 h, 10000 µM in data set [8] of 1.33.
`COC1OC(=O)C(Br)=C1Nc1ccc(-c2ccc(N)cc2)cc1` (stereo not given): the IC50 in [1] was 69.6 µM; in data set [2], 59.6 µM; in data set [3], over 100 µM; in [4], 64.2 µM; in data set [5], 82.3 µM; in data set [6], over 100 µM. Further, the IC50 in [7] amounted to 68.6 µM. In data set [8], this molecule displayed a logP at 24 h, 10000 µM of 1.46.
